According to ChEMBL document CHEMBL1153520, “A multivalent approach to the design and discovery of orally efficacious 5-HT4 receptor agonists” (J Med Chem, 2009):

Key:
[1] = target: T1, 5-hydroxytryptamine receptor 4 (Homo sapiens, UniProt Q13639); test: Displacement of [H]GR-113808 from human 5HT4C receptor expressed in HEK293 cells by liquid scintillation counting; format: cell-based
Homo sapiens = species: Homo sapiens; test: Selectivity ratio of Ki for human 5HT3A receptor to Ki for human 5HT4C receptor
[2] = target: T1, 5-hydroxytryptamine receptor 4; test: Agonist activity at human 5HT4C receptor expressed in HEK293 cells assessed as accumulation of cAMP by flash plate adenylyl cyclase activation assay; format: functional, cell-based
[3] = target: T1, 5-hydroxytryptamine receptor 4; test: Intrinsic activity at human 5HT4C receptor expressed in HEK293 cells assessed as accumulation of cAMP by flash plate adenylyl cyclase activation assay relative to serotonin; format: functional, cell-based
hERG (KCNH2) = hERG (KCNH2) (Homo sapiens, UniProt Q12809); test: Inhibition of human ERG potassium channel expressed in CHO-K1 cells at 3 uM by whole cell voltage clamp assay; format: cell-based; details: CHO-K1 cells expressing human ERG potassium channel
[4] = Permeability across human Caco-2 cells assessed as permeability coefficient; format: ADME, cell-based; details: read-out: permeability

Chain of hERG (KCNH2) (Q12809 whole entry): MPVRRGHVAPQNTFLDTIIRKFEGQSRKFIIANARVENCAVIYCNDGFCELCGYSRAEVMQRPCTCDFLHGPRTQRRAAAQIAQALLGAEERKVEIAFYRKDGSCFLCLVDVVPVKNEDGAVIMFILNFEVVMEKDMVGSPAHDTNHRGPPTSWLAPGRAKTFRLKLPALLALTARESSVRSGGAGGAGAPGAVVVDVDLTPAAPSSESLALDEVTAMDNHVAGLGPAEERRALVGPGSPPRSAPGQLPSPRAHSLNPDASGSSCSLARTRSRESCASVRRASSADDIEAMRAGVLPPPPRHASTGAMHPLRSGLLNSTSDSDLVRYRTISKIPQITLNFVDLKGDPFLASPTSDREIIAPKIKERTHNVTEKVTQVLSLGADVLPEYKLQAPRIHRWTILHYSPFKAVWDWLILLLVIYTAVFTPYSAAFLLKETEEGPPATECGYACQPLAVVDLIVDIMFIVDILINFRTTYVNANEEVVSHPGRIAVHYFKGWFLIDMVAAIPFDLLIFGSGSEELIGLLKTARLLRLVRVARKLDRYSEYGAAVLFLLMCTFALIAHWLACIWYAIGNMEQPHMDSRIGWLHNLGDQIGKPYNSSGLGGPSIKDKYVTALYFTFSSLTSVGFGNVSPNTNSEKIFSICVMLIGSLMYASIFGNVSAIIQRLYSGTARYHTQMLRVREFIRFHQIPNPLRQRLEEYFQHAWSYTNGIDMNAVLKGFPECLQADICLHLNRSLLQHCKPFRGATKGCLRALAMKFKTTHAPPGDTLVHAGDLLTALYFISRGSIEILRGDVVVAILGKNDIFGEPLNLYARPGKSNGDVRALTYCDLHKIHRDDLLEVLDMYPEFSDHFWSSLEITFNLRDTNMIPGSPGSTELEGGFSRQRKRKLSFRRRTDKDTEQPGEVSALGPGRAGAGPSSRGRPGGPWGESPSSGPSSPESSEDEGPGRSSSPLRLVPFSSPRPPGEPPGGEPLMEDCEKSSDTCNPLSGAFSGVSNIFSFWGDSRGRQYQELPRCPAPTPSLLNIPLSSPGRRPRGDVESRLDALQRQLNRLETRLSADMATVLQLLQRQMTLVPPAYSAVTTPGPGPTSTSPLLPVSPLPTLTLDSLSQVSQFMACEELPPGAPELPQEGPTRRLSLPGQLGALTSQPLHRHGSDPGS
T1 sequence (Q13639 whole entry): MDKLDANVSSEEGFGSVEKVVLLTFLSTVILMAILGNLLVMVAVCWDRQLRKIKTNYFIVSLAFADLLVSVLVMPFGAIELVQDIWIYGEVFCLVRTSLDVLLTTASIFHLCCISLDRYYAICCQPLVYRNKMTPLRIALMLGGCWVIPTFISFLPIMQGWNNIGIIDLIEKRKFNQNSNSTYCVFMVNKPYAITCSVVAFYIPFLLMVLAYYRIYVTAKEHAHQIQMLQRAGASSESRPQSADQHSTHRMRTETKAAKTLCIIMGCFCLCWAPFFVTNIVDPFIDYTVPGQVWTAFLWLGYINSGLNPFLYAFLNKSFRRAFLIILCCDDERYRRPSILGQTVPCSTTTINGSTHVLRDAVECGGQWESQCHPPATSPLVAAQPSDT

| Compound | Ki [1] | Ratio Ki (Homo sapiens) | EC50 [2] | Intrinsic activity [3] | inhibition at 3 µM (hERG (KCNH2)) | Papp [4] |
| --- | --- | --- | --- | --- | --- | --- |
| CC(C)n1c(=O)c(C(=O)N[C@H]2C[C@H]3CC[C@@H](C2)N3C[C@H](O)CN2CCN(S(C)(=O)=O)CC2)cc2ccccc21 | 50.1 nM | 1300 | 1.26 nM | > 100% | 6% | 20 ×10⁻⁶ cm/s |
| CC(C)n1c(=O)c(C(=O)N[C@H]2C[C@H]3CC[C@@H](C2)N3CCCN2CCC[C@@H]2C(N)=O)cc2ccccc21 | 50.1 nM | 1500 | 3.98 nM | > 100% | 12% | 2 ×10⁻⁶ cm/s |
| CC(C)n1c(=O)c(C(=O)N[C@H]2C[C@H]3CC[C@@H](C2)N3CCCCCCCN2CCC(CNS(C)(=O)=O)CC2)cc2ccccc21 | 2.51 nM | 3100 | 0.631 nM | 98% | 5% | 2 ×10⁻⁶ cm/s |
| CCOC(=O)N1CCN(CCCCCCCN2[C@@H]3CC[C@H]2C[C@@H](NC(=O)c2cc4ccccc4n(C(C)C)c2=O)C3)CC1 | 7.94 nM | 810 | 3.16 nM | > 100% | 87% | 14 ×10⁻⁶ cm/s |
| CC(C)n1c(=O)c(C(=O)N[C@H]2C[C@H]3CC[C@@H](C2)N3CCCN(C)CCCN(C)S(C)(=O)=O)cc2ccccc21 | 200 nM | 210 | 10 nM | > 100% | 6% | 4 ×10⁻⁶ cm/s |
| CC(C)n1c(=O)c(C(=O)N[C@H]2C[C@H]3CC[C@@H](C2)N3CCCCCCCN(C)CCCN(C)S(C)(=O)=O)cc2ccccc21 | 5.01 nM | 6500 | 0.631 nM | 96% | 12% | 3 ×10⁻⁶ cm/s |
| CC(C)n1c(=O)c(C(=O)N[C@H]2C[C@H]3CC[C@@H](C2)N3CCCN2CCC(CNS(C)(=O)=O)CC2)cc2ccccc21 | 5.01 nM | 11000 | 1 nM | > 100% | 14% | 3 ×10⁻⁶ cm/s |
| CC(C)n1c(=O)c(C(=O)N[C@H]2C[C@H]3CC[C@@H](C2)N3CCCN2CCOCC2)cc2ccccc21 | 39.8 nM | 750 | 2.51 nM | > 100% | 80% | 22 ×10⁻⁶ cm/s |
| CC(C)n1c(=O)c(C(=O)N[C@H]2C[C@H]3CC[C@@H](C2)N3CCCN2CCN(c3ccccc3)CC2)cc2ccccc21 | 7.94 nM | 1000 | 0.794 nM | > 100% | 90% | 22 ×10⁻⁶ cm/s |
| CC(C)n1c(=O)c(C(=O)N[C@H]2C[C@H]3CC[C@@H](C2)N3CCN2CCCCC2)cc2ccccc21 | 79.4 nM | 720 | 10 nM | > 100% | – | – |
| CC(C)n1c(=O)c(C(=O)N[C@H]2C[C@H]3CC[C@@H](C2)N3CCCCCCCCN2CCCCC2)cc2ccccc21 | 3.16 nM | 9900 | 1.26 nM | 99% | – | – |
| COc1ccc2[nH]cc(C(=O)NCC3CCNCC3)c2c1 | 3980 nM | 1.1 | 6310 nM | 42% | – | – |
| COc1cc(N)c(Cl)cc1C(=O)NC1CCN(CCCCCCCCO)CC1 | 79.4 nM | 29 | 15.8 nM | > 100% | – | – |
| CC(C)n1c(=O)c(C(=O)N[C@H]2C[C@H]3CC[C@@H](C2)N3)cc2ccccc21 | 251 nM | 0.85 | 12.6 nM | > 100% | – | – |
| COc1cc(N)c(Cl)cc1C(=O)NC1CCN(CCCCCN2CCCCC2)CC1 | 10 nM | 990 | 5.01 nM | > 100% | – | – |
| CC(C)n1c(=O)c(C(=O)N[C@H]2C[C@H]3CC[C@@H](C2)N3CCS(=O)(=O)O)cc2ccccc21 | 1000 nM | 49 | 6.31 nM | > 100% | – | – |
| COc1cc(N)c(Cl)cc1C(=O)NCCN1CCNCC1 | 1260 nM | 1.1 | 501 nM | > 100% | – | – |
